The results in this text go back to patent US7923573B2, “Benzene compound having 2 or more substituents” (Daiichi Sankyo Company, Limited, priority 2004, dated 2011).

In the test the target is T1, LXRα (Homo sapiens, UniProt Q13133).
T1 construct: expressed in transfected cells; host or cells: CV-1 African green monkey kidney cells (ATCC CCL-70)
T1 sequence (Q13133 1-447): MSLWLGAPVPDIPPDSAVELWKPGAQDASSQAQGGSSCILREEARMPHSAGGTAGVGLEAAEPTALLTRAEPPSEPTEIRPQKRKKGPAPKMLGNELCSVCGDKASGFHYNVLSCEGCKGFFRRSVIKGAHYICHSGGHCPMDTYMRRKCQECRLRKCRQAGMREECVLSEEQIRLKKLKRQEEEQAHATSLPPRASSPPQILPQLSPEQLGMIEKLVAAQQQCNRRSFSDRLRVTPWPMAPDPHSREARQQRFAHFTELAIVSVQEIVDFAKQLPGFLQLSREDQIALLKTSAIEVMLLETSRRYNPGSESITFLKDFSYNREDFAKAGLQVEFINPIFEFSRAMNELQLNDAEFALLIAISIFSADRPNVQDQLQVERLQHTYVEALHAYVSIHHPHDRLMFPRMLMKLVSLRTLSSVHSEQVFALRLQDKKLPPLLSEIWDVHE
T1 sequence (P19793 1-462 partner): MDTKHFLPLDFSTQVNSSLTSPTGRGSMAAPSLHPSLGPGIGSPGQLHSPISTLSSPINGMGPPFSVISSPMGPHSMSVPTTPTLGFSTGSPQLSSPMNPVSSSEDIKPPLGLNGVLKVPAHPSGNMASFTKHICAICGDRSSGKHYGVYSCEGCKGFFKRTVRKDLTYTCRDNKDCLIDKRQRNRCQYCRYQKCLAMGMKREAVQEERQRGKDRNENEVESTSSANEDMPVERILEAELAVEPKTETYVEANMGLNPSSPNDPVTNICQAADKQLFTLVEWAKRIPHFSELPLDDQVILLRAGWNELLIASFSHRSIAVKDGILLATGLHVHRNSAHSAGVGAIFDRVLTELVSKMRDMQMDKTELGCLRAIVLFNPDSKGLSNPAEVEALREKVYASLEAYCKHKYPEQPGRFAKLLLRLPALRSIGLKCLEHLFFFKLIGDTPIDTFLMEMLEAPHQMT
The experiment in a line: Co-transfection assay (LXR/LXRE luciferase reporter), LXRα. In kind it is cell-based. The settings on record: CV-1 cells transfected with hLXRα and LXRE luciferase reporter; agonist activity; read-out: EC50 value against LXRα. The source says: The effect of activating or inhibiting LXR transcription activity of a test compound can be measured by a co-transfection which is a cell-based assay. LXR is known to function by forming a heterodimer with RXR. In a co-transfection assay, LXR and RXR expression plasmids and a luciferase reporter expression plasmid containing three copies of an LXR-RXR heterodimer-responding DNA sequence are first inserted into mammalian cells by transient transfection. Next, when the transfected cells are treated with a test compound having LXR agonist activity, the transcription activating effect of LXR is enhanced, and the LXR agonist activity of a test compound can be measured as an increase in luciferase activity.
(1) CV-1 African green monkey kidney cells (ATCC CCL-70)
(2) Co-transfection expression plasmid, pcDNA-hLXRα or pcDNA-hLXRβ, reporter (LXREx3-pTAL-Luc Vector)
(3) Lipofect AMINE, Plus Reagent (Invitrogen) transfection reagent
(4) Cell lysis buffer [Passive lysis buffer; 5× (Promega Corporation) is diluted with distilled water]
(5) Luciferase assay reagent (Promega Corporation)
(6) Medium (Dulbecco's Modified Eagle Medium (Gibco) 500 ml, Gentamicin Reagent Solution (Gibco) 2.5 ml, 2 mM L-Gluta Max I Supplement (Gibco) 5.0 ml, MEM Sodium pyruvate solution (Gibco) 5.0 ml, penicillin-streptomycin (Gibco) 5.0 ml, charcoal/dextran-treated FBS (HyClone) 50 ml) (7) OPTI-MEM I Reduced-Serum Medium (Gibco) Adjustment of Screening Reagents
The aforementioned CV-1 cells were disseminated into a 96-well assay plate (Costar 3610) to a concentration of 2×10^4 cells/[…]/well followed by incubating overnight at 37° C.
DNA transfection was carried out according to the protocol provided with the transfection reagent. 10 μl of OPTI-MEM I Reduced-Serum Medium (Gibco) and 0.5 μl of Lipofect AMINE (Invitrogen) were added to two 50 ml tubes followed by shaking the mixed solutions to obtain Solution A. The substances of (1) below were respectively added to each tube followed by shaking the mixed solutions and allowing to stand undisturbed for 15 minutes to obtain Solution B. In addition, Solution C was obtained by carrying out the same procedure using the substances of (2) below.
(1) 10 μl of OPTI-MEM I Reduced-Serum Medium, 1 μl of Plus Reagent (Invitrogen) and 0.1 μg of DNA [PCMX-LXRα (33 ng) and LXRE (66 ng)];
(2) 10 μl of OPTI-MEM I Reduced-Serum Medium, 1 μl of Plus Reagent (Invitrogen) and 0.1 μg of DNA [PCMX-LXRβ (33 ng) and LXRE (66 ng)].
The entire amount of the aforementioned Solution A was respectively added to the aforementioned Solution B followed by shaking and allowing to stand undisturbed for 15 minutes to obtain LXRα solution. In addition, LXRβ solution was obtained by carrying out the same procedure using the aforementioned Solutions C and A.
After removing the medium from the 96-well assay plate used to Incubate the CV-1 cells as described above by decanting, and completely removing any moisture, 50 μl/well of OPTI-MEM I Reduced-Serum Medium were added to each well followed by addition of the aforementioned LXRα solution or LXRβ solution to each well at 20 μl/well and incubating for 3 hours at 37° C.
Three hours later, 20% charcoal FBS-DMEM was added to each well at 70 μl/well. FBS-DMEM used for the medium was prepared by mixing charcoal and dextran-treated FBS at a ratio of 9:1. Next, test compounds adjusted to concentrations of 1 mM, 0.3 mM, 0.1 mM, 30 μM, 10 μM, 3 μM, 1 μM or 0 μM with DMSO were added to each well at 1.4 μl/well. […]
Background: A reporter such as luciferase makes a cellular process visible.
With `CNC(=O)Cc1ccc(-c2ccc(OCc3ccc(C(F)(F)F)c(O)c3C(=O)OC(C)(C)C)cc2)cc1` [Example 50, tert-Butyl 2-hydroxy-6-[({4′-[2-(methylamino)-2-oxoethyl]-1,1′-biphenyl-4-yl}oxy)methyl]-3-trifluoromethylbenzoate], the EC50 is at most 5 µM. Regarding `CC(C)(C)OC(=O)c1c(COc2ccc(-c3cc(CC(=O)O)ccc3F)cc2)ccc(C(F)(F)F)c1O` [Example 52, (4′-{[2-(tert-Butoxycarbonyl)-3-hydroxy-4-(trifluoromethyl)benzyl]oxy}-6-fluoro-1,1′-biphenyl-3-yl)acetic acid], the concentration for a half-maximal effect (EC50) was at most 5 µM. To `CN(C)C(=O)Cc1ccc(-c2ccc(OCc3ccc(C(F)(F)F)c(O)c3C(=O)OC(C)(C)C)cc2)cc1` [Example 49, tert-Butyl 6-[({4′-[2-(dimethylamino)-2-oxoethyl]-1,1′-biphenyl-4-yl}oxy)methyl]-2-hydroxy-3-(trifluoromethyl)benzoate] belongs at most 5 µM. `CC(C)(C)OC(=O)c1c(COc2ccc(-c3ccc(C4(C(=O)O)CC4)cc3)cc2)ccc(C(F)(F)F)c1O` [Example 15, 1-(4′-{[2-(tert-Butoxycarbonyl)-3-hydroxy-4-(trifluoromethyl)benzyl]oxy}-1,1′-biphenyl-4-yl)cyclopropanecarboxylic acid]: the EC50 is at most 5 µM. To `CC(C)(C)OC(=O)c1c(COc2ccc(-c3ccc(CC(=O)O)cc3)c(F)c2)ccc(C(F)(F)F)c1O` [Example 14, (4′-{[2-(tert-Butoxycarbonyl)-3-hydroxy-4-(trifluoromethyl)benzyl]oxy}-2′-fluoro-1,1′-biphenyl-4-yl)acetic acid] belongs at most 5 µM.

By EC50 is commonly meant the concentration at which the effect is half-maximal.
